Results on 3 compounds are retold here after patent US10351570B2, “Compounds and uses thereof” (Kala Pharmaceuticals, Inc., priority 2013, dated 2019).

Read-outs that look alike come from different tables or passages of the source.

The nature of series [1]: Milling with Pluronic F127 into mucus penetrating particles; particle size by dynamic light scattering. It is filed as physicochemical. Conditions: formulated as MPP, milled with Pluronic F127 in DPBS; for Particle Size: dynamic light scattering. The source says: Compounds of the present invention synthesized in accordance with the preceding Examples were formulated as mucus penetrating particles (MPP). Specifically, compounds I-2, compound I-5, and compound I-6 were each milled in the presence of Pluronic F127 (F127) to determine whether F127 1) aids particle size reduction to several hundreds of nanometers and 2) physically (non-covalently) coats the surface of generated nanoparticles with a mucoinert coating that would minimize particle interactions with mucus constituents and prevent mucus adhesion.
A milling procedure was employed in which an aqueous dispersion containing coarse drug particles and Pluronic F127 (F127) was milled with grinding medium until particle size was reduced below 400 nm as measured by dynamic light scattering. Table 4 lists the size of particles and polydispersity index (a measure of the width of the particle size distribution) generated using this technique. In this example suspensions were buffered using DPBS (Dulbecco's Phosphate-Buffered Saline) which yields a suspension that is both isotonic and has a physiologically relevant pH.

Series [2] is described as follows: PK study after topical ocular administration of compound I-2 solution. In kind it is in vivo, Dutch-belted rabbits. Particulars: Dutch-belted, rabbit, topical or ocular, 50 μL of 0.5% solution, topical 0.5% solution, 50 μL BID 5 days; for AUC(0-t): read-out: AUC0-12 hr. As for the experimental part:
(§1) In this example, the formulation consisted of 0.5% I-2, 0.5% F127, in 20 mM citrate buffer pH 6.0 and NaCl (added to produce isotonic formulation).
(§2) The portion of the retina and choroid collected and analyzed was an 8-mm round punch where the macula is located in humans.

A short description of series [3]: Nanoparticle mobility in human cervicovaginal mucus (dark field microscopy). Particulars: low pH of CVM. As for the experimental part: In order to determine whether the generated nanoparticles have reduced interactions with mucins and are therefore able to move within mucus without becoming trapped, particles were incubated with human cervicovaginal mucus (CVM) and observed via dark field microscopy. In a typical experiment, 51 μL of the nanoparticle suspension was added to 20 μl of CVM. Observations were made in a minimum of three distinct and randomly selected areas of the CVM sample. Control particles with known behavior were used to qualify the CVM sample as appropriate for the assay.

A short description of series [4]: Physical and chemical stability of I-2 solutions at room temperature. In kind it is physicochemical. Conditions: F127 (0.5%), 20 mM Tris (pH 8); precipitation. As for the experimental part: Solutions of I-2 were formulated with F127 or Tween 80, and under a range of pH values. Briefly, I-2 was first completely solubilized using an acidic solution (0.1 N HCl) at a high concentration of […]. The final formulation was diluted to a solution consisting of 0.5% (w/v) I-2 into buffered solution containing F127 or Tween 80 as described in Table 5. Following dilution, the pH of the formulations was measured using pH indicator strips (PEHANON) and confirmed to be within expected range (±0.5 units of target pH).
Physical and chemical stability of the solutions at room temperature (20-25° C.) were assessed after 7-10 days (tfinal). Physical instability in a solution can manifest as the precipitation and sedimentation of the drug of interest and excipients over time. To assess physical stability, the formulations at tfinal were first filtered through a 300 kDa modified polyethersulfone filter membrane (Nanosep) to remove any precipitate in the solution. The concentration of I-2 in the filtrates was then measured and compared to that at t=0. The purity of I-2 in the unfiltered solution was also evaluated at tfinal, to further confirm chemical stability. This parameter is defined by the area under the signal peak that is attributed to compound I-2 as a percentage of all peaks reported by in the sample by HPLC (% peak area).

Series [5] in a line: Draize-Ocular Irritation assessment. In kind it is in vivo, Dutch-belted rabbits. Conditions: topical 0.5% solution, 50 μL BID 5 days. The method, then: as §1, §2

As to `Cc1cc(C(=O)Nc2cc(Oc3ccc4nc(NC(=O)NC5COC5)cn4n3)ccc2C)n(C)n1` [Compound I-5], in series [1], the “Polydispersity Index (PDI)” value was found to be 0.160 and the “Particle Size” value turned out to be 276 nm.
On the same counts, the results for `Cc1ccc(Oc2ccc3nc(NC(=O)CC4COC4)cn3n2)cc1NC(=O)c1cccc(F)c1` [Compound I-6] are 0.206 and 245 nm.
Turning to `Cc1cc(C(=O)Nc2cc(Oc3ccc4nc(NC(=O)CN5CC[C@H](N(C)C)C5)cn4n3)ccc2C)n(C)n1` [Compound I-2], in series [2] (Choroid (8-mm punch)), the peak concentration (Cmax) turned out to be 1790 nM, the Tmax came to 2 h and the AUC(0-t) is 12.5 µM·h. Further, in series [2] (Plasma), the highest level (Cmax) was 5.96 nM, the Tmax turned out to be 0.5 h and the AUC(0-t) came to 0.0256 µM·h. Further, the half-life in series [2] (Plasma, read-out: t½ (converted)) is 3.63 h. Further, in series [2] (Retina (8-mm punch)), the Cmax turned out to be 218 nM, the time of peak concentration (Tmax) amounted to 0.5 h and the AUC(0-t) came to 2.06 µM·h. In series [3], the “solubility in CVM” value is “soluble”. Moreover, the “physical stability of solution” value in series [4] is recorded as “major physical instability”. In addition, the “Draize-Ocular Irritation” value in series [5] is “no irritation”.
